The values below are quoted from earlier work in patent publication US20080069886A1, “Spironolactone nanoparticles, compositions and methods related thereto” (JAGOTEC AG, priority 2001, published 2008).

Each structure is given as a SMILES string.

As for `CC(=O)S[C@@H]1CC2=CC(=O)CC[C@]2(C)[C@H]2CC[C@@]3(C)[C@@H](CC[C@@]34CCC(=O)O4)[C@H]12` [Spironolactone], the solubility in water was 2.8 mg/100 ml.
